# Assay results reported in paper PMC6979384, “Characterization of the plant homeodomain (PHD) reader family for their histone tail interactions” (Epigenetics & Chromatin, 2020).
# Where no end group is shown, it is not given here. [ ]: non-standard residue; d: D form. Arg(Me2a) = CN(C)C(=N)NCCC[C@H](N)C(=O)O; pS = N[C@@H](COP(=O)(O)O)C(=O)O
# How the values were obtained:
# Assay in all cases: Histone peptide microarray
# Format in all cases: binding, human
# ING4 = details: ING4, GST-tagged; arrays performed twice, n of 4
# Source text: (§1) To more comprehensively define the histone interactions of the 31 PHD readers identified from the domain microarray analyses, we probed each on an alternate microarray platform containing a library of 293 synthetic histone peptides with single or combinatorial PTMs (Additional file 2: Figure S4 and Additional file 3: Table S2).
# (§2) The 31 GST-tagged PHD readers identified in the PHD finger domain array were expressed and purified as previously. Histone peptide arrays and peptide pulldown assays were conducted as recently described (specifically, the optimized protocol from Petell et al. for the former).
# (§3) Supplementary file 13072_2020_328_MOESM3_ESM.xlsx: Additional file 3: Table S2. […] Excel Tab Peptide List is a compiled list of the entire 293 histone peptide library with amino acid sequence ranges. […] Each number corresponds to the peptide number designated in Peptide List. Excel Tab Average Signals is a compiled set of binding data: chromatin reader at 0.5 μM vs. entire 293 peptide library. Data is presented as the average and standard deviation of 4 replicates. The average signals are colored to indicate signal intensity with green being strong and white being weak/low. […] Key: red= stronger relative binding; blue = weaker relative binding. Excel Tab Array info summary is a table summarizing the domains, sequence coverage, array signal range, and noise for each of the GST-tagged readers assayed on the peptide microarrays.
# KDM5B (3) = details: KDM5B (3), GST-tagged; arrays performed twice, n of 4
# Source text: as §1, §2, §3
# RAG2 = details: RAG2, GST-tagged; arrays performed twice, n of 4
# Source text: as §1, §2, §3
# KDM5B (1) = details: KDM5B (1), GST-tagged; arrays performed twice, n of 4
# Source text: as §1, §2, §3
# PHRF1 (RP) = details: PHRF1 (RP), GST-tagged; arrays performed twice, n of 4
# Source text: as §1, §2, §3
# KDM4C (TTP) = details: KDM4C (TTP), GST-tagged; arrays performed twice, n of 4
# Source text: as §1, §2, §3
# DPF2 (PPC2W2) = details: DPF2 (PPC2W2), GST-tagged; arrays performed twice, n of 4
# Source text: as §1, §2, §3
# ING2 = details: ING2, GST-tagged; arrays performed twice, n of 4
# Source text: as §1, §2, §3
# PHF8 = details: PHF8, GST-tagged; arrays performed twice, n of 4
# Source text: as §1, §2, §3
# KDM7A = details: KDM7A, GST-tagged; arrays performed twice, n of 4
# Source text: as §1, §2, §3
# PHF21A = details: PHF21A, GST-tagged; arrays performed twice, n of 4
# Source text: as §1, §2, §3
# BAZ2B = details: BAZ2B, GST-tagged; arrays performed twice, n of 4
# Source text: as §1, §2, §3
# CHD4 (PPCC) = details: CHD4 (PPCC), GST-tagged; arrays performed twice, n of 4
# Source text: as §1, §2, §3
# TAF3 = details: TAF3, GST-tagged; arrays performed twice, n of 4
# Source text: as §1, §2, §3
# PHF2 = details: PHF2, GST-tagged; arrays performed twice, n of 4
# Source text: as §1, §2, §3
# CHD5 (PPCC) = details: CHD5 (PPCC), GST-tagged; arrays performed twice, n of 4
# Source text: as §1, §2, §3
# BPTF (PB) = details: BPTF (PB), GST-tagged; arrays performed twice, n of 4
# Source text: as §1, §2, §3
# ING5 = details: ING5, GST-tagged; arrays performed twice, n of 4
# Source text: as §1, §2, §3
# ING1 = details: ING1, GST-tagged; arrays performed twice, n of 4
# Source text: as §1, §2, §3
# KDM5A (1) = details: KDM5A (1), GST-tagged; arrays performed twice, n of 4
# Source text: as §1, §2, §3
# SP140L = details: SP140L, GST-tagged; arrays performed twice, n of 4
# Source text: as §1, §2, §3
# PHF23 = details: PHF23, GST-tagged; arrays performed twice, n of 4
# Source text: as §1, §2, §3
# CHD5 (PCC) = details: CHD5 (PCC), GST-tagged; arrays performed twice, n of 4
# Source text: as §1, §2, §3
# DIDO1 = details: DIDO1, GST-tagged; arrays performed twice, n of 4
# Source text: as §1, §2, §3
# PHF13 = details: PHF13, GST-tagged; arrays performed twice, n of 4
# Source text: as §1, §2, §3
# MORC3 (CW) = details: MORC3 (CW), GST-tagged; arrays performed twice, n of 4
# Source text: as §1, §2, §3
# AIRE (PP) = details: AIRE (PP), GST-tagged; arrays performed twice, n of 4
# Source text: as §1, §2, §3
# TRIM66 (PB) = details: TRIM66 (PB), GST-tagged; arrays performed twice, n of 4
# Source text: as §1, §2, §3
# MLL5 = details: MLL5, GST-tagged; arrays performed twice, n of 4
# Source text: as §1, §2, §3
# KDM5A (3) = details: KDM5A (3), GST-tagged; arrays performed twice, n of 4
# Source text: as §1, §2, §3
# ING3 = details: ING3, GST-tagged; arrays performed twice, n of 4
# Source text: as §1, §2, §3
Substance,Array Heatmap value (peptide array binding signal) (ING4),Array Heatmap value (peptide array binding signal) (KDM5B (3)),Array Heatmap value (peptide array binding signal) (RAG2),Array Heatmap value (peptide array binding signal) (KDM5B (1)),Array Heatmap value (peptide array binding signal) (PHRF1 (RP)),Array Heatmap value (peptide array binding signal) (KDM4C (TTP)),Array Heatmap value (peptide array binding signal) (DPF2 (PPC2W2)),Array Heatmap value (peptide array binding signal) (ING2),Array Heatmap value (peptide array binding signal) (PHF8),Array Heatmap value (peptide array binding signal) (KDM7A),Array Heatmap value (peptide array binding signal) (PHF21A),Array Heatmap value (peptide array binding signal) (BAZ2B),Array Heatmap value (peptide array binding signal) (CHD4 (PPCC)),Array Heatmap value (peptide array binding signal) (TAF3),Array Heatmap value (peptide array binding signal) (PHF2),Array Heatmap value (peptide array binding signal) (CHD5 (PPCC)),Array Heatmap value (peptide array binding signal) (BPTF (PB)),Array Heatmap value (peptide array binding signal) (ING5),Array Heatmap value (peptide array binding signal) (ING1),Array Heatmap value (peptide array binding signal) (KDM5A (1)),other results
"H2AS1p + R3me2a + K5ac: H2A 1-17 ([pS]G[Arg(Me2a)]GK(Ac)QGGKARAKAKTR; UniProt P0C0S8 2-18, looked up, fragment)",0.4949,0.5099,0.2825,0.7084,0.5154,0.5547,0.758,0.6108,0.3894,0.4163,0.4866,0.5108,0.5877,0.2891,0.5212,0.6207,0.3885,0.4136,0.5672,0.5224,Array Heatmap value (peptide array binding signal) (SP140L): 0.3795; Array Heatmap value (peptide array binding signal) (PHF23): 0.5991; Array Heatmap value (peptide array binding signal) (CHD5 (PCC)): 0.8457; Array Heatmap value (peptide array binding signal) (DIDO1): 0.7538; Array Heatmap value (peptide array binding signal) (PHF13): 0.6406; Array Heatmap value (peptide array binding signal) (MORC3 (CW)): 0.4152; Array Heatmap value (peptide array binding signal) (AIRE (PP)): 0.4865; Array Heatmap value (peptide array binding signal) (TRIM66 (PB)): 0.6131; Array Heatmap value (peptide array binding signal) (MLL5): 0.5765; Array Heatmap value (peptide array binding signal) (KDM5A (3)): 0.5245; Array Heatmap value (peptide array binding signal) (ING3): 0.5376
"H2AX (132-142): H2AX 132-142 (GKKATQASQEY; UniProt P16104 133-143, looked up, fragment)",0.4334,0.4637,0.2674,0.6162,0.3943,0.4463,0.6502,0.621,0.3348,0.3262,0.4468,0.4423,0.5518,0.2878,0.5225,0.5152,0.3256,0.3322,0.536,0.4587,Array Heatmap value (peptide array binding signal) (SP140L): 0.3692; Array Heatmap value (peptide array binding signal) (PHF23): 0.5369; Array Heatmap value (peptide array binding signal) (CHD5 (PCC)): 0.733; Array Heatmap value (peptide array binding signal) (DIDO1): 0.7308; Array Heatmap value (peptide array binding signal) (PHF13): 0.5577; Array Heatmap value (peptide array binding signal) (MORC3 (CW)): 0.4162; Array Heatmap value (peptide array binding signal) (AIRE (PP)): 0.4547; Array Heatmap value (peptide array binding signal) (TRIM66 (PB)): 0.5363; Array Heatmap value (peptide array binding signal) (MLL5): 0.533; Array Heatmap value (peptide array binding signal) (KDM5A (3)): 0.478; Array Heatmap value (peptide array binding signal) (ING3): 0.4477
